Data taken from PMC8448693, “Effects of co-formulants on the absorption and secretion of active substances in plant protection products in vitro” (Archives of Toxicology, 2021).

Columns and labels:
Caco-2 cells = assay: WST-1 cytotoxicity assay in Caco-2 cells, 24 h exposure; format: cell-based; conditions: WST-1, Caco-2, 24 h; tested range ≤ 960 mg/L
Procedure: Caco-2 cells (ECACC: 86010202) were purchased from the European Collection of Authenticated Cell Cultures (Salisbury, UK). […] The cells were cultivated at 37 °C, 5% CO2 and […] atmosphere in a cell culture incubator. They were passaged when reaching 80–90% confluence every 2 to 3 days. Passaging was performed at maximum ten times and by aspirating the medium, washing with phosphate-buffered saline (PBS) and incubating with trypsin–EDTA (0.05%) in Dulbecco’s phosphate-buffered saline (Capricorn Scientific GmbH, Ebsdorfergrund, Germany) at 37 °C for 3–5 min.
Cytotoxicity was first analysed by water soluble tetrazolium assay (WST-1; Roche, Berlin, Germany), followed by neutral red uptake (NRU) assay. Caco-2 cells were seeded in 96-well plates at a density of 5000 cells per well and differentiated for three weeks. The cells were incubated with both active substances and all of the above-mentioned co-formulants individually, with a combination of the active substances and the respective surfactants in a ratio in accordance with the products, as well as with the respective products, containing all co-formulants, for 24 h. Eight different concentrations were investigated in culture medium with a final concentration of 0.4% DMSO. Triton X-100 (0.1%) served as a positive control. After 24 h incubation a WST-1 assay was performed according to the protocol provided by the supplier.

[1] = tested on: Caco-2 cell membrane fluidity; assay: DPH fluorescence anisotropy (membrane fluidity) in Caco-2 cells; format: cell-based; conditions: Caco-2, vs untreated control
Procedure: Furthermore, the active ingredients and the products were investigated at sub-cytotoxic concentrations to rule out any impact of the active ingredients. Briefly, Caco-2 cells were cultivated in six-well plates for 21 days and detached on day 21 using 1 mL Accutase Cell Detachment Solution (ACC-1B, Capricorn Scientific GmbH, Ebsdorfergrund, Germany) per well. After incubation for 20-30 min at room temperature, detached cells were separated by centrifugation. […] Fluorescence anisotropy measurements were performed at 37 °C using a dual monochromator fluorescence spectrometer (model LS 55, PerkinElmer, Rodgau, Germany) fitted with polarizing filters and a stirred cell. Samples were excited with 355 nm vertical polarised light and emission was measured at 430 nm in vertical and horizontal direction. Since fluorescence anisotropy is inversely related to membrane fluidity, decreased DPH fluorescence anisotropy implies an increased membrane fluidity. Three independent experiments were performed (n = 3). The fluorescence anisotropy (r) is defined by following equation: […]: fluorescence intensity measured in direction parallel to the polarised exciting light.IVH: fluorescence intensity measured in direction perpendicular to the polarised exciting light.G: IVH/IHH; correction factor for the instrument.

recombinant human Pgp = recombinant human Pgp (Homo sapiens, UniProt P08183); assay: Pgp ATPase assay (Pgp-Glo assay system)
Procedure: This study focused on potential effects on Pgp transporters.
Pgp ATPase activity modulation was determined using the Pgp-Glo assay system (Promega, Madison, WI, USA) following the manufacturer's user protocol. Briefly, 25 µg of recombinant human Pgp membrane in Pgp-Glo assay buffer was incubated with different concentrations of each active substance or co-formulant in combination with 200 µM verapamil at 37 °C for 5 min. […] 5 mM MgATP was added to each well and 96-well plates were incubated at 37 °C for 40 min to initiate the reaction. Luminescence of the remaining, unmetabolised ATP was initiated by adding 50 µl of 25 mM ATP detection reagent. After briefly shaking on a plate shaker, 96-well plates were incubated at room temperature for 20 min. The luciferase generated luminescence signal was measured on an Infinite M200 PRO plate reader (Tecan, Maennedorf, Swiss). All measurements were corrected by subtraction of Na3VO4-treated signals (non Pgp ATPase activity) and represented as changes in luminescence signals (ΔRLU). […] Changes in luminescence (ΔRLU) caused by the co-formulants and abamectin incubated with verapamil were compared to ΔRLU caused by verapamil. ΔRLU values of the active ingredients (without verapamil) were compared to ΔRLU values of untreated samples (basal ΔRLU). Each condition was measured in four replicates (n = 4).

Sequence of recombinant human Pgp (P08183 whole entry): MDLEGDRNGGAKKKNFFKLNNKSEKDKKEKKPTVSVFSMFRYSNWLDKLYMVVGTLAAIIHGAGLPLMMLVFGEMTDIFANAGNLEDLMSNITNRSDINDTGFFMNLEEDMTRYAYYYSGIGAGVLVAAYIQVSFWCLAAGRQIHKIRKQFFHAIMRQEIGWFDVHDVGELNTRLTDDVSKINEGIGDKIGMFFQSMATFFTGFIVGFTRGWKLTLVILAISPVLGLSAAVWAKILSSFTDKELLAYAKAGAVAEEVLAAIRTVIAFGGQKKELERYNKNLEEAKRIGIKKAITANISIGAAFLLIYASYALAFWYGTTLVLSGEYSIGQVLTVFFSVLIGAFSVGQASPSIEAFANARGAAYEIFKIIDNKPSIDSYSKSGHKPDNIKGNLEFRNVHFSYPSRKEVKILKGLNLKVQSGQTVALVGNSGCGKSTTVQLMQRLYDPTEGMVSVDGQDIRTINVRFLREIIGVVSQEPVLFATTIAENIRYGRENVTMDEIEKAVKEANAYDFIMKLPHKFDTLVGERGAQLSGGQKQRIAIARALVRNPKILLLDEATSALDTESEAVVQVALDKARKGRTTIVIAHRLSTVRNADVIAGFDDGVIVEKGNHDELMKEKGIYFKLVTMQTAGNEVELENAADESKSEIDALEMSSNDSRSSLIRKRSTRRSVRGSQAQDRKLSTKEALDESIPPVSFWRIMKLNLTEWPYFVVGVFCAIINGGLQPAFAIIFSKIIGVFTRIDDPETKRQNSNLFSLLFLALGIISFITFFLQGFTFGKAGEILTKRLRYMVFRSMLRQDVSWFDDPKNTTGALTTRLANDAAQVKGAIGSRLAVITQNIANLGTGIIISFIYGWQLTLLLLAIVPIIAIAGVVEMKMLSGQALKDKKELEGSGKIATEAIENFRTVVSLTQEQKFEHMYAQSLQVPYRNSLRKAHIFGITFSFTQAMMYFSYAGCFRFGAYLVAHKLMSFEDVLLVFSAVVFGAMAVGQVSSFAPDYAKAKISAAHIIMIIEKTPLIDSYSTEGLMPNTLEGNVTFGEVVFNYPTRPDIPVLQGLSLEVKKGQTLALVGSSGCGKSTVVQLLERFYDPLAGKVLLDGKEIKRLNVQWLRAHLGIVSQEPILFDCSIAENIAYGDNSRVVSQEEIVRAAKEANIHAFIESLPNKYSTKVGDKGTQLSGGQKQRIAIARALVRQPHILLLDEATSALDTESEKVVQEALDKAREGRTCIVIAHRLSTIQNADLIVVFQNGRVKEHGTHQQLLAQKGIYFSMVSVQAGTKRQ

Molecule | cytotoxic effects over the tested concentration range (Caco-2 cells) | impact on the fluorescence anisotropy ([1]; 64 mg/L) | impact on the fluorescence anisotropy ([1]; 10 mg/L) | stimulation of Pgp ATPase activity compared to the untreated control (recombinant human Pgp; 1.25 mg/L (lowest concentration), without verapamil) | maximum decreased ΔRLU value compared to the verapamil control (recombinant human Pgp; verapamil-stimulated (200 µM) Pgp ATPase activity, 2.5–64 mg/L, concentration-dependent inhibition) [%]
CCCCCCC(C)OC(=O)COc1nc(F)c(Cl)c(N)c1Cl (centres unmarked) [fluroxypyr-meptyl] | did not show significant cytotoxic effects | did not show a statistically significant impact | – | – | –
abamectin | – | – | did not show a statistically significant impact | approximately 250% | 30
